Measured values published in US20240279205A1, “NOVEL BENZIMIDAZOLE DERIVATIVE” (Carna Biosciences, Inc., priority 2020, published 2024).
Where a name gives a salt, the structure may show the parent alone.

These compounds were tested against T1, human STING (hSTING) (Homo sapiens, UniProt Q86WV6) (assay: Inhibition test of intracellular human STING (hSTING) pathway using SEAP reporter cells (HEK-Blue ISG), stimulation with Compound 3). Details: Compound 3 10 nM stimulation, 21 hours.
T1 construct: host or cells: HEK-Blue ISG cells (HEK293-derived SEAP reporter line)
T1 sequence (Q86WV6 whole entry H232R): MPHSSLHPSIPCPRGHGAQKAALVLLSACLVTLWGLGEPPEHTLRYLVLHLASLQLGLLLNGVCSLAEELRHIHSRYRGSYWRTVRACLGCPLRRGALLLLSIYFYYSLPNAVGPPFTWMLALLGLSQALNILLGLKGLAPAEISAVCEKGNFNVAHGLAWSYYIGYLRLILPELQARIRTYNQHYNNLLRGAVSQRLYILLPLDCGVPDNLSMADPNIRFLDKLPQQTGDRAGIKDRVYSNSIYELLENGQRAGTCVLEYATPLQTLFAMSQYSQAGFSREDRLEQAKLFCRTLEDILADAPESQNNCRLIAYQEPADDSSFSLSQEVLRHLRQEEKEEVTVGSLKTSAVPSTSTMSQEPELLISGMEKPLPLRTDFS
Assay type: cell-based
Design: hSTING inhibitory activity: scale not given here
Summary of the method: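 HEK-Blue ISG cells with IRF-inducible SEAP reporter, pretreated 1 h with compound (final 0.1 to 10 μM), then stimulated with Compound 3 (final 10 nM) for 21 h at 37° C. Supernatant SEAP measured colorimetrically; IC50 from log-concentration regression, normalized to stimulated (100%) and unstimulated (0%) controls.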
For `Fc1cc(C2CCOCC2)cc2nc(Nc3c[nH]c4ccc(Cl)nc34)[nH]c12` [Embodiment 175, N-(5-Chloro-1H-pyrrolo[3,2-b]pyridin-3-yl)-7-fluoro-5-(tetrahydro-2H-pyran-4-yl)-1H-benzo[d]imidazol-2-amine], the hSTING inhibitory activity was “* *”. With `Fc1cc2[nH]c(Nc3c[nH]c4ccc(Cl)nc34)nc2cc1Oc1ccccc1` [Embodiment 193, N-(5-Chloro-1H-pyrrolo[3,2-b]pyridin-3-yl)-6-fluoro-5-phenoxy-1H-benzo[d]imidazol-2-amine] the hSTING inhibitory activity was “* *”. In the case of `Cn1c(Nc2c[nH]c3ccc(Cl)nc23)nc2cc(F)c(Oc3ccccc3)cc21` [Embodiment 194, N-(5-Chloro-1H-pyrrolo[3,2-b]pyridin-3-yl)-5-fluoro-1-methyl-6-phenoxy-1H-benzo[d]imidazol-2-amine], the hSTING inhibitory activity is reported as “* *”. With `Cn1c(Nc2c[nH]c3ccc(Cl)cc23)nc2cc(C3CCOCC3)ccc21` [Embodiment 197, N-(5-Chloro-1H-indol-3-yl)-1-methyl-5-(tetrahydro-2H-pyran-4-yl)-1H-benzo[d]imidazole-2-amine formate] the hSTING inhibitory activity was “* *”.

Same assay, conditions: Compound 3 10 nM stimulation, 21 hours, read-out: hSTING inhibitory activity
Compound `CN(C)C(=O)c1cccc2[nH]c(Nc3c[nH]c4ccc(Cl)nc34)nc12` [Embodiment 166, 2-[(5-Chloro-1H-pyrrolo[3,2-b]pyridin-3-yl)amino]-N,N-dimethyl-1H-benzo[d]imidazole-4-carboxamide] has an IC50 of no less than 10 µM. In the case of `COCCn1c(Nc2c[nH]c3ccc(Cl)nc23)nc2c(C(F)(F)F)cccc21` [Embodiment 167, N-(5-Chloro-1H-pyrrolo[3,2-b]pyridin-3-yl)-1-(2-methoxyethyl)-4-(trifluoromethyl)-1H-benzo[d] imidazole-2-amine], the IC50 is reported as no less than 10 µM. `Cn1c(Nc2c[nH]c3ccc(Cl)nc23)nc2cc(F)ccc21` [Embodiment 168, N-(5-Chloro-1H-pyrrolo[3,2-b]pyridin-3-yl)-5-fluoro-1-methyl-1H-benzo[d]imidazol-2-amine formate] showed an IC50 of no less than 10 µM. `C=Cc1ccc2[nH]cc(Nc3nc4cc(C(F)(F)F)ccc4n3C)c2n1` [Embodiment 171, 1-methyl-5-(trifluoromethyl)-N-(5-vinyl-1H-pyrrolo[3,2-b]pyridin-3-yl)-1H-benzo[d]imidazol-2-amine] showed an IC50 of 1 to 10 µM. `Cn1c(Nc2c[nH]c3ccc(Cl)nc23)nc2cc(Cl)ccc21` [Embodiment 172, 5-Chloro-N-(5-chloro-1H-pyrrolo [3,2-b]pyridin-3-yl)-1-methyl-1H-benzo[d]imidazol-2-amine] showed an IC50 of 1 to 10 µM. With `CCc1ccc2[nH]cc(Nc3nc4cc(C(F)(F)F)ccc4n3C)c2n1` [Embodiment 173, N-(5-ethyl-1H-pyrrolo[3,2-b]pyridin-3-yl)-1-methyl-5-(trifluoromethyl)-1H-benzo[d]imidazol-2-amine] the IC50 was no less than 10 µM. `Cn1c(Nc2c[nH]c3ccc(Cl)nc23)nc2ccc(Oc3ccc(C#N)cc3)cc21` [Embodiment 174, 4-({2-[(5-chloro-1H-pyrrolo[3,2-b]pyridin-3-yl)amino]-1-methyl-1H-benzo[d]imidazol-6-yl} Oxy)benzonitrile] gave an IC50 of no less than 10 µM. Work on `Cc1c(F)ccc2[nH]c(Nc3c[nH]c4ccc(Cl)nc34)nc12` [Embodiment 176, N-(5-Chloro-1H-pyrrolo[3,2-b]pyridin-3-yl)-5-fluoro-4-methyl-1H-benzo[d]imidazol-2-amine formate] yielded an IC50 of 1 to 10 µM. `O=[N+]([O-])c1cc2[nH]c(Nc3c[nH]c4ccc(Cl)nc34)nc2cc1F` [Embodiment 177, N-(5-Chloro-1H-pyrrolo[3,2-b]pyridin-3-yl)-5-fluoro-6-nitro-1H-benzo[d]imidazol-2-amine] gave an IC50 of 1 to 10 µM. `COCCn1c(Nc2c[nH]c3ccc(Cl)nc23)nc2ccc(C(F)(F)F)cc21` [Embodiment 179, N-(5-chloro-1H-pyrrolo[3,2-b]pyridin-3-yl)-1-(2-methoxyethyl)-6-(trifluoromethyl)-1H-benzo[d]imidazol-2-amine] was tested, and the IC50 was no less than 10 µM. Work on `COCCn1c(Nc2c[nH]c3ccc(Cl)nc23)nc2cccc(C(F)(F)F)c21` [Embodiment 180, N-(5-chloro-1H-pyrrolo[3,2-b]pyridin-3-yl)-1-(2-methoxyethyl)-7-(trifluoromethyl)-1H-benzo[d]imidazol-2-amine] yielded an IC50 of no less than 10 µM. `COCCn1c(Nc2c[nH]c3ccc(Cl)nc23)nc2cc(-c3ccccc3)ccc21` [Embodiment 181] was tested, and the IC50 was no less than 10 µM. `COCCn1c(Nc2c[nH]c3ccc(Cl)nc23)nc2ccc(-c3ccccc3)cc21` [Embodiment 182] was tested, and the IC50 was no less than 10 µM. `Cn1c(Nc2c[nH]c3ccc(Cl)nc23)nc2c(F)c(F)ccc21` [Embodiment 183, N-(5-Chloro-1H-pyrrolo[3,2-b]pyridin-3-yl)-4,5-difluoro-1-methyl-1H-benzo[d]imidazol-2-amine] was tested, and the IC50 was no less than 10 µM. Compound `Cn1c(Nc2c[nH]c3ccc(Cl)nc23)nc2ccc(F)c(F)c21` [Embodiment 184, N-(5-Chloro-1H-pyrrolo[3,2-b]pyridin-3-yl)-6,7-difluoro-1-methyl-1H-benzo[d]imidazol-2-amine] has an IC50 of no less than 10 µM. In the case of `Cn1c(Nc2c[nH]c3ccc(Cl)nc23)nc2cc(Oc3cccnc3)ccc21` [Embodiment 198, N-(5-chloro-1H-pyrrolo[3,2-b]pyridin-3-yl)-1-methyl-5-(pyridin-3-yloxy)-1H-benzo[d]imidazole-2-amine], the IC50 is reported as no less than 10 µM. Work on `COCCn1c(Nc2c[nH]c3ccc(Cl)nc23)nc2c(F)c(F)ccc21` [Embodiment 200, N-(5-chloro-1H-pyrrolo[3,2-b]pyridin-3-yl)-4,5-difluoro-1-(2-methoxyethyl)-1H-benzo[d] imidazole-2-amine] yielded an IC50 of no less than 10 µM. `COCCn1c(Nc2c[nH]c3ccc(Cl)nc23)nc2ccc(F)c(F)c21` [Embodiment 201, N-(5-chloro-1H-pyrrolo[3,2-b]pyridin-3-yl)-6,7-difluoro-1-(2-methoxyethyl)-1H-benzo[d]imidazole-2-amine] gave an IC50 of no less than 10 µM. `COCCn1c(Nc2c[nH]c3ccc(Cl)nc23)nc2c(F)cc(F)cc21` [Embodiment 202, N-(5-chloro-1H-pyrrolo[3,2-b]pyridin-3-yl)-4,6-difluoro-1-(2-methoxyethyl)-1H-benzo[d]imidazole-2-amine] was tested, and the IC50 was no less than 10 µM. In the case of `Cn1c(Nc2c[nH]c3ccc(Cl)nc23)nc2c(F)cc(F)cc21` [Embodiment 203, N-(5-Chloro-1H-pyrrolo[3,2-b]pyridin-3-yl)-4,6-difluoro-1-methyl-1H-benzo[d]imidazol-2-amine], the IC50 is reported as no less than 10 µM. `Cn1c(Nc2c[nH]c3ccc(Cl)nc23)nc2cc(F)cc(F)c21` [Embodiment 204, N-(5-Chloro-1H-pyrrolo[3,2-b]pyridin-3-yl)-5,7-difluoro-1-methyl-1H-benzo[d]imidazol-2-amine] showed an IC50 of no less than 10 µM. `COCCn1c(Nc2c[nH]c3ccc(Cl)nc23)nc2cc(F)cc(F)c21` [Embodiment 205, N-(5-chloro-1H-pyrrolo[3,2-b]pyridin-3-yl)-5,7-difluoro-1-(2-methoxyethyl)-1H-benzo[d]imidazole-2-amine] showed an IC50 of no less than 10 µM. With `COCCn1c(Nc2c[nH]c3ccc(Cl)nc23)nc2cc(Oc3cccnc3)ccc21` [Embodiment 206, N-(5-chloro-1H-pyrrolo[3,2-b]pyridin-3-yl)-1-(2-methylxhetyl)-5-(pyridin-3-yloxy)-1H-benzo[d] imidazol-2-amine] the IC50 was no less than 10 µM. In the case of `COCCn1c(Nc2c[nH]c3ccc(Cl)nc23)nc2ccc(Oc3cccnc3)cc21` [Embodiment 207, N-(5-Chloro-1H-pyrrolo[3,2-b]pyridin-3-yl)-1-(2-methylxhetyl)-6-(pyridin-3-yloxy)-1H-benzo[d] imidazol-2-amine], the IC50 is reported as no less than 10 µM.
